# From patent publication US20100292288A1, “CRYSTALLINE FORMS OF (R)-1-{2-[4`- (3-METHOXY-PROPANE-1- SULFONYL)-BIPHENYL-4-YL]-ETHYL}-2-METHYL-PYRROLIDINE, AND COMPOSITIONS, AND METHODS RELATED THERETO” (ARENA PHARMACEUTICALS, INC., priority 2007, published 2010)
# Key:
# [1] = Dynamic vapor sorption (DVS) analysis, hygroscopicity; type: physicochemical; settings: crystalline form; VTI-SGA100
# Description: Dynamic vapor sorption analysis was conducted using a VTI-SGA100. Samples were placed in an open pan inside the instrument and allowed to dry at a relative humidity (RH) of 0%. The sample was considered sufficiently dry when a change in mass over time (dm/dt) was less than 0.04%. The subsequent experiment which, started immediately after drying, was as follows: RH increased in 5% RH steps from 0-95% followed by decreasing RH steps from 95-5%. A change in dm/dt of 0.002% was used to determine when equilibration at any given step was achieved prior to the instrument moving to the next relative humidity step.
# Hygroscopicity was measured using a dynamic moisture-sorption analyzer, VTI Corporation, SGA-100. The sample was placed as-is in a tared sample holder on the VTI balance. A drying step was run at 40° C. and 1% RH for 20 minutes. The isotherm conditions are 25° C. with steps of 20% RH from 10% RH up to 90% RH and back to 10% RH. Weight is checked every 5 minutes. Consecutive % weight change of <0.01% or 2 hours, whichever occurs first, is required before continuing to the next step.
# [2] = system: RAMH-induced drinking; assay: Blockade of RAMH-induced drinking assay; type: in vivo, rat; settings: male Sprague Dawley rats; 0.3 mg/kg PO; RAMH 3 mg/kg SC 30 min later; water intake over 20 min
# Description: When administered to rodents, H3 agonists such as R-α-methyl-histamine (RAMH) induce a drinking response which is sensitive to reversal with an H3 antagonist. Blockade of RAMH-induced drinking can therefore be utilised as an in vivo assay for functional H3 antagonist activity. In this assay, male Sprague Dawley rats (250-350 g) were housed three per cage and maintained under a reverse 12 h light cycle (lights off at 1130 h). At 1030 h on the day of test, rats were individually housed in new cages and food was removed. 120 min later, rats were administered test article (vehicle or H3 antagonist, 0.3 mg/kg PO). 30 min later, water was removed, and RAMH (vehicle or RAMH 3 mg/kg salt SC) was administered. 10 min after administration of RAMH, weighed water bottles were placed in the cages, and drinking was allowed for 20 min. Water consumption was determined for each animal by weighing each bottle to the nearest 0.1 g. Data is expressed as percentage reduction in water intake according to the following formula: [1−[(ANTAGONIST/RAMH)−(VEHICLE/RAMH)/(VEHICLE/RAMH)−(VEHICLE/VEHICLE)]]*100
# [3] = molecular target: histamine H3-receptor (Rattus norvegicus, UniProt Q9QYN8); assay: [3H] N-alpha-methyl-histamine competitive histamine H3-receptor binding assay; settings: membranes from whole rat brain cortex; [3H]-N-α-methyl-histamine 1 nM; 30 min at room temperature
# histamine H3-receptor, sequence (Q9QYN8 1-397 isoform Q9QYN8-3): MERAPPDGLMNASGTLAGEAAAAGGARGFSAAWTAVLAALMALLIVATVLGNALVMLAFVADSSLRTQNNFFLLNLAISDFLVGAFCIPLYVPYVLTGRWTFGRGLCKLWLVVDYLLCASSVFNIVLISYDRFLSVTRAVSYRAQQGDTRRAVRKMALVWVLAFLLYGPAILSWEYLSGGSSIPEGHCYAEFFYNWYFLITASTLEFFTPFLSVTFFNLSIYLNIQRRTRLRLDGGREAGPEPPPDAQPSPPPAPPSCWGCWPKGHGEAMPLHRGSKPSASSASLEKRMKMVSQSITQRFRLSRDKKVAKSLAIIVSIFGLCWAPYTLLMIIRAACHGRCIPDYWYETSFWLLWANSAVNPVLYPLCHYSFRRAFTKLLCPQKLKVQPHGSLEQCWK
# Description: The histamine receptor binding assay was conducted using standard laboratory procedures as described below. A crude membrane fraction was prepared from whole rat brain cortex using a polytron to homogenize the tissue followed by differential centrifugation in a HEPES-based buffer containing protease inhibitors. Membranes where frozen at −80° C. until needed. Frozen membranes were thawed and resuspended in ice-cold assay buffer consisting of 50 mM TRIS containing 5 mM EDTA (pH=7.4). 50 micrograms (μg) of membrane protein was added to each well of a 96-well assay plate along with test compound and [^3H]-N-α-methyl-histamine (1 nanomolar (nM) final assay concentration). Imetit was used as an assay positive control at varying concentrations. The plate was incubated for 30 min at room temperature. The assay was terminated by rapid filtration through a 96-well glass fiber filtration plate (GF/C) using a cell harvester (Perkin-Elmer). Captured membranes were washed three times with cold assay buffer and plates were dried at 50° C. 35 microliters (μL) of scintillation cocktail was added to each well and membrane-bound radioactivity was recorded using a TopCount 96-well plate scintillation counter (Perkin-Elmer).
# [4] = molecular target: T1, human histamine H3-receptor (Homo sapiens, UniProt Q9Y5N1); assay: Human histamine H3-receptor binding assay, MDS Pharma Services (Taiwan); settings: Catalogue No. 239810
# T1 construct: purchased MDS Pharma Services (Taiwan) 239810
# T1 sequence (Q9Y5N1 whole entry): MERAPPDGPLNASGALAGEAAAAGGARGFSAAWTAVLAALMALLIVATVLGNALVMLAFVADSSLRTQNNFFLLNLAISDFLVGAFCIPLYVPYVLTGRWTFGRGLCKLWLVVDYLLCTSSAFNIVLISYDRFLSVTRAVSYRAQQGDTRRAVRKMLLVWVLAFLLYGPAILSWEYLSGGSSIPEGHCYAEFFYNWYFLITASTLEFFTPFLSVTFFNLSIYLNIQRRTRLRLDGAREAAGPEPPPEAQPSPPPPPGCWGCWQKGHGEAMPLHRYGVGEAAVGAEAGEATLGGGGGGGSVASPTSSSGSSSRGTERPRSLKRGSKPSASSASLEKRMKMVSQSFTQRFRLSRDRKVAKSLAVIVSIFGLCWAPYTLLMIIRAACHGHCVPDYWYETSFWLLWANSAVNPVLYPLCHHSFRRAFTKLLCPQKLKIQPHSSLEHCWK
# Description: Compounds were tested for their ability to bind to the human histamine H3-receptor using the MDS Pharma Services (Taiwan) assay, Catalogue No. 239810.
Compound,hygroscopicity from DVS data [1],% inhibition of RAMH-induced drinking [2] [%],Ki [3] [nM],Ki [4] [nM]
COCCCS(=O)(=O)c1ccc(-c2ccc(CCN3CCC[C@H]3C)cc2)cc1.O=C(O)/C=C\C(=O)O [(R)-1-{2-[4′-(3-methoxy-propane-1-sulfonyl)-biphenyl-4-yl]-ethyl}-2-methyl-pyrrolidine maleate],non-hygroscopic,–,–,–
"COCCCS(=O)(=O)c1ccc(-c2ccc(CCN3CCC[C@H]3C)cc2)cc1.O=C(O)CC(O)(CC(=O)O)C(=O)O.O=C(O)CC(O)(CC(=O)O)C(=O)O [Cmpd (I) di-citrate, (R)-1-{2-[4′-(3-methoxy-propane-1-sulfonyl)-biphenyl-4-yl]-ethyl}-2-methyl-pyrrolidine di-citrate]",non-hygroscopic,104 ± 14,0.75,–
"COCCCS(=O)(=O)c1ccc(-c2ccc(CCN3CCC[C@H]3C)cc2)cc1 [Cmpd (I), (R)-1-{2-[4′-(3-methoxy-propane-1-sulfonyl)-biphenyl-4-yl]-ethyl}-2-methyl-pyrrolidine]",–,–,–,5.37
